Residues, ends and D or L forms follow the SMILES beside them.
What was measured:
[1] = test system: S. aureus strain USA300 and SA112, GAS; test: Bacterial growth inhibition (OD600), Gram-positive strains; type: cell-based, Staphylococcus aureus; group A Streptococcus; details: 0-50 µM overnight, OD 600, n = 3, S. aureus USA300, SA113 (SA112 in text)
Procedure: (§1) We further looked at mRNA abundance by quantitative RT-PCR (qRT-PCR) to evaluate gene expression for type 1 interferon IFNB1, chemokine CXCL10, and cytokines TSLP and IL6 in NHEKs treated with selected LL-34 parent, LL-34—F5A, I24A, F27A, and L31A—peptides either alone or in combination with U1 dsRNA for 18 h (Fig. 1, E–H).
(§2) Methicillin-resistant S. aureus USA300 and methicillin-sensitive S. aureus SA113 (American Type Culture Collection 35556) were cultured in 3% tryptic soy broth overnight at 37 °C with shaking at 250 rpm. GAS M49 strain NZ131 was cultured in Todd Hewitt broth supplemented with 1% yeast extract overnight at 37 °C without shaking. E. coli R1 strain RS218 was cultured in LB broth overnight at 37 °C with shaking at 250 rpm. MIC values were determined using a round-bottom 96-well microdilution method with RPMI cell culture media (as a source of Ca^2+ and Mg^2+) supplemented with tryptic soy broth, Todd Hewitt broth/yeast extract, or LB to facilitate growth of the respective bacterial strains. Overnight bacterial cultures were subcultured into fresh broth and grown to midlate log phase indicated by an absorbance at 600 nm value between 0.8 and 1.0 for each bacterial strain. The absorbance was then normalized to provide a concentration of 1 × 10^7 colony-forming units/ml in RPMI medium. The LL-34 parent and alanine scan mutants were serially diluted into the 96-well microtiter plates containing prewarmed RPMI bacterial growth medium. A 10 μl aliquot of the midlate log phase bacteria was inoculated into the 96-well microtiter plates that contained 95 μl of RPMI medium with or without the LL-34 peptide dilutions and incubated for 16 to 18 h at […] with shaking at 200 rpm. Inhibition of growth was determined by measuring the absorbance at 600 nm readings of each well using a microplate reader (Infinite M200 Pro; Tecan). The MIC of each bacterial strain was determined by the lowest peptide concentration that inhibited more than 80% bacterial growth.
(§3) (A) NHEKs and HDMECs (B) were treated with LL34- parent peptide and all the 34 alanine substituted peptides (Pep L1A-Pep R34A) and LL37 at 2 µM for 16 h. IL-6 protein secretion was assessed with ELISA (n=3) (C-F) LL34-Parent, LL34 F5A, LL34 I24A, LL34 F27A, and LL34 L31A peptides were incubated with S. aureus USA 300, S. aureus SA113, Group A Streptococcus (GAS) and E. coli at increasing concentrations (0-50 µM) overnight, and bacterial culture growth was assayed as absorbance at OD 600 (n=3).

[2] = test system: NHEKs, IL6, IFNB1, TSLP, CXCL10 mRNA; test: qRT-PCR gene expression in NHEKs; type: cell-based, human; details: 18 h / 8 h (Fig. 1 legend), n = 3
Procedure: (§4) Protein levels of human IL-6 were analyzed from cell supernatant with ELISA (n = 3). Corresponding MIC values of LL-34 peptides L1A–R34A against Staphylococcus aureus USA300 are shown in the heat map. B, human dermal endothelial cells (HDMECs) were treated with either U1 dsRNA (2.5 μg/ml) or a combination of U1 dsRNA (2.5 μg/ml) and LL-34 peptides (Pep 1–Pep 34 and Pep–parent LL-34) at 2 μM for 18 h. IL-6 ELISA results are shown (n = 3). Green bars denote loss of IL-6 protein secretion compared with parent control shown in red. C, helical wheel plot for LL-34. Amino acids with green circles denote specific residues where replacement with an alanine caused the loss of IL-6 secretion compared with parent LL-34 peptide in NHEKs cotreated with U1 dsRNA. D, in the helical wheel plot for LL-34, circled green amino acids indicate that a substitution caused a loss of vetting in HDMEC. E–H, NHEKs were treated with LL-34-parent peptide (LL-34-P), LL-34-F5A, LL-34-I24A, LL-34-F27A, and LL-34-L31A at 2 μM, either individually or in combination with U1 dsRNA (2.5 μg/ml) for 8 h. Gene expression of IL-6, IFNB1, TSLP, and CXCL10 was assessed with qRT-PCR. GAPDH was used as a reference gene (n = 3) (∗p < 0.05; ∗∗∗∗p < 0.0001). One way-ANOVA was used. IL-6, interleukin 6; LL-34, 34-amino acid peptide; MIC, minimum inhibitory concentration, ns, not significant.
as §1
RNA extracted from cells (Pure Link RNA Isolation Kit; Life Technologies) was quantified on the Nanodrop 2000/200C Spectrophotometer (Thermo Fisher Scientific). About 500 ng of purified RNA was used to synthesize complementary DNA with iScript cDNA Synthesis Kit (Bio-Rad). Predeveloped Taqman (Thermo Fisher Scientific) gene expression assays were used to evaluate mRNA transcript levels. Taqman cycling conditions were used as previously described ([9], [45]). All experiments were performed on a CFX96 system (Bio-Rad). Fold change relative to GAPDH was calculated using the Livak ΔΔCt method ([46]).

[3] = test system: NHEKs, IL-6 secretion in response to U1 dsRNA; test: IL-6 secretion ELISA in NHEKs; type: cell-based, human; details: U1 dsRNA 2.5 μg/ml + peptide 2 μM, 18 h, n = 3
Procedure: as §4
We hypothesized that sequential replacement of each amino acid in LL-34 peptide with a neutral amino acid alanine might reveal the amino acid residues critical for its ability to induce inflammation in response to U1 dsRNA. First, we treated NHEKs and human dermal microvascular endothelial cells (HDMECs) with LL-34 parent peptide and each of the 34 mutants at 2 μM for 18 h and measured the secretion of interleukin 6 (IL-6) in the supernatant by ELISA (Fig. S1, A and B). […] We then treated both NHEKs and HDMECs with a combination of U1 dsRNA (2.5 μg/ml) and the LL-34 parent/mutant peptides at 2 μM for 18 h and measured IL-6 secretion (Fig. 1, A–C). […] A similar pattern of IL-6 release was observed when HDMECs were treated with the peptide library and U1 dsRNA (Fig. 1B).
Cell culture supernatant was frozen at −80 °C until use for analysis. ELISA was performed with sandwich ELISA kits (R&D Systems) and quantified on a Spectramax Absorbance reader (Molecular Biosystems). Data were analyzed with GraphPad.

[4] = test system: Escherichia coli; test: Bacterial growth inhibition (OD600), E. coli; type: cell-based; details: 0-50 µM overnight, OD 600, n = 3
Procedure: as §1, §2, §3

[5] = test system: normal human epidermal keratinocytes (NHEKs); test: LDH release cytotoxicity assay in keratinocytes; type: cell-based; details: minimal concentration giving 50% LDH release by NHEKs
Summary of the method: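 Normal human epidermal keratinocytes were exposed to LL-34 parent and alanine-substituted peptides. Cytotoxicity was read as LDH release in fresh culture supernatants after treatment, using a commercial kit, and reported as the minimal concentration showing toxicity.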

[6] = test system: methicillin-resistant Staphylococcus aureus strain USA300; type: cell-based; details: MIC comparison with parent (MIC 25 μM); 18 h
Description: Since LL-34 was the minimal truncation mutant of LL-37 that retained both antimicrobial and immune modulatory activity, we prepared a series of synthetic peptides with sequential substitutions of alanine at each amino acid position of the LL-34 parent peptide (Table 1). We compared the minimum inhibitory concentration (MIC) for the LL-34 parent peptide and the alanine mutants (LL-34 peptides—L1A and R34A) against methicillin-resistant Staphylococcus aureus strain USA300 (Fig. 1A). LL-34 peptides were incubated at concentrations of 0 to 100 μM with bacteria. The minimal concentration at which no growth was observed was noted after 18 h of incubation. […] Because of these changes in the MIC against S. aureus between the mutants, we investigated the effective toxicity profile of the peptides in normal human epidermal keratinocytes (NHEKs) by lactate dehydrogenase (LDH) release assay (Table 1). […] Most other peptides were cytotoxic at a minimal concentration of 10 μM, whereas LL-34—K15A was toxic at a concentration of 2.5 μM.
as §2

Row | Structure (SMILES) | Capacity to inhibit growth of Gram-positive bacteria [1] | Gene expression of IL6, IFNB1, and CXCL10, cotreatment with U1 dsRNA ([2]; U1 dsRNA 2.5 μg/ml + peptide 2 μM) | Gene expression of TSLP, peptide alone ([2]; peptide 2 μM alone, GAPDH reference) | Basal expression of IL6, IFNB1, and CXCL10, peptide alone ([2]; peptide 2 μM alone) | IL-6 protein secretion, cotreatment with U1 dsRNA, vs U1 dsRNA + LL-34 parent [3] | Action against Gram-negative E. coli [4] | Minimal cytotoxic concentration in NHEK (LD50) [5] [µM] | Antimicrobial potency against S. aureus USA300 compared with LL-34 parent peptide [6]
1 | CC[C@H](C)[C@H](NC(=O)[C@H](CCCCN)NC(=O)[C@H](CCC(=O)O)NC(=O)[C@H](CCCCN)NC(=O)[C@H](CO)NC(=O)[C@H](CCCCN)NC(=O)[C@H](CCCNC(=N)N)NC(=O)[C@H](Cc1ccccc1)NC(=O)[C@H](C)NC(=O)[C@H](CC(=O)O)NC(=O)CNC(=O)[C@H](CC(C)C)NC(=O)[C@@H](N)CC(C)C)C(=O)NCC(=O)N[C@@H](CCCCN)C(=O)N[C@@H](CCC(=O)O)C(=O)N[C@@H](Cc1ccccc1)C(=O)N[C@@H](CCCCN)C(=O)N[C@@H](CCCNC(=N)N)C(=O)N[C@H](C(=O)N[C@H](C(=O)N[C@@H](CCC(N)=O)C(=O)N[C@@H](CCCNC(=N)N)C(=O)N[C@H](C(=O)N[C@@H](CCCCN)C(=O)N[C@@H](CC(=O)O)C(=O)N[C@@H](Cc1ccccc1)C(=O)N[C@@H](CC(C)C)C(=O)N[C@@H](CCCNC(=N)N)C(=O)N[C@@H](CC(N)=O)C(=O)N[C@@H](CC(C)C)C(=O)N[C@H](C(=O)N1CCC[C@H]1C(=O)N[C@@H](CCCNC(=N)N)C(=O)O)C(C)C)[C@@H](C)CC)C(C)C)[C@@H](C)CC [LL-34—F5A] (H-LLGDAFRKSKEKIGKEFKRIVQRIKDFLRNLVPR-OH) | increased capacity to inhibit growth of most of the tested Gram-positive bacteria | reduction in gene expression | increased gene expression of TSLP | not affected | reduced secretion of IL-6 protein | little action | 10 | –
2 | CC[C@H](C)[C@H](NC(=O)[C@H](C)NC(=O)[C@H](CCC(=O)O)NC(=O)[C@H](CCCCN)NC(=O)[C@H](CO)NC(=O)[C@H](CCCCN)NC(=O)[C@H](CCCNC(=N)N)NC(=O)[C@H](Cc1ccccc1)NC(=O)[C@H](Cc1ccccc1)NC(=O)[C@H](CC(=O)O)NC(=O)CNC(=O)[C@H](CC(C)C)NC(=O)[C@@H](N)CC(C)C)C(=O)NCC(=O)N[C@@H](CCCCN)C(=O)N[C@@H](CCC(=O)O)C(=O)N[C@@H](Cc1ccccc1)C(=O)N[C@@H](CCCCN)C(=O)N[C@@H](CCCNC(=N)N)C(=O)N[C@H](C(=O)N[C@H](C(=O)N[C@@H](CCC(N)=O)C(=O)N[C@@H](CCCNC(=N)N)C(=O)N[C@H](C(=O)N[C@@H](CCCCN)C(=O)N[C@@H](CC(=O)O)C(=O)N[C@@H](Cc1ccccc1)C(=O)N[C@@H](CC(C)C)C(=O)N[C@@H](CCCNC(=N)N)C(=O)N[C@@H](CC(N)=O)C(=O)N[C@@H](CC(C)C)C(=O)N[C@H](C(=O)N1CCC[C@H]1C(=O)N[C@@H](CCCNC(=N)N)C(=O)O)C(C)C)[C@@H](C)CC)C(C)C)[C@@H](C)CC [LL-34—K12A] (H-LLGDFFRKSKEAIGKEFKRIVQRIKDFLRNLVPR-OH) | – | – | – | – | reduced secretion of IL-6 protein | – | 5 | reduced MIC compared with the parent peptide
3 | CC[C@H](C)[C@H](NC(=O)[C@H](CCCCN)NC(=O)[C@H](CCC(=O)O)NC(=O)[C@H](CCCCN)NC(=O)[C@H](CO)NC(=O)[C@H](CCCCN)NC(=O)[C@H](CCCNC(=N)N)NC(=O)[C@H](Cc1ccccc1)NC(=O)[C@H](Cc1ccccc1)NC(=O)[C@H](CC(=O)O)NC(=O)CNC(=O)[C@H](CC(C)C)NC(=O)[C@@H](N)CC(C)C)C(=O)NCC(=O)N[C@@H](CCCCN)C(=O)N[C@@H](CCC(=O)O)C(=O)N[C@@H](Cc1ccccc1)C(=O)N[C@@H](CCCCN)C(=O)N[C@@H](CCCNC(=N)N)C(=O)N[C@H](C(=O)N[C@H](C(=O)N[C@@H](CCC(N)=O)C(=O)N[C@@H](CCCNC(=N)N)C(=O)N[C@H](C(=O)N[C@@H](CCCCN)C(=O)N[C@@H](CC(=O)O)C(=O)N[C@@H](Cc1ccccc1)C(=O)N[C@@H](C)C(=O)N[C@@H](CCCNC(=N)N)C(=O)N[C@@H](CC(N)=O)C(=O)N[C@@H](CC(C)C)C(=O)N[C@H](C(=O)N1CCC[C@H]1C(=O)N[C@@H](CCCNC(=N)N)C(=O)O)C(C)C)[C@@H](C)CC)C(C)C)[C@@H](C)CC [LL-34—L28A] (H-LLGDFFRKSKEKIGKEFKRIVQRIKDFARNLVPR-OH) | – | – | – | – | reduced secretion of IL-6 protein | – | 5 | killed S. aureus USA300 more potently
